Data as given in ChEMBL document CHEMBL3525924, “Cytochrome P450 3A-mediated microsomal biotransformation of 1α,25-dihydroxyvitamin D3 in mouse and human liver: drug-related induction and inhibition of catabolism” (Drug Metab Dispos, 2012).

Experiments:
Format in all cases: ADME
[1] = Drug metabolism in prednisone treated CD1 mouse liver microsomes assessed as metabolite formation at 20 uM after 30 mins by LC/MS analysis in presence of NADPH and CYP2A inhibitor 8-methoxypsoralen; conditions: 0.5 h
[2] = Drug metabolism in prednisone treated CD1 mouse liver microsomes assessed as metabolite formation at 20 uM after 30 mins by LC/MS analysis in presence of NADPH and CYP2B inhibitor orphenadrine; conditions: 0.5 h
[3] = Drug metabolism in dexamethasone treated CD1 mouse liver microsomes assessed as metabolite formation at 20 uM after 30 mins by LC/MS analysis in presence of NADPH and CYP2B inhibitor orphenadrine; conditions: 0.5 h
Liver microsome [4] = assay: Drug metabolism in human liver microsomes assessed as metabolite formation at 20 uM after 30 mins by LC/MS analysis in presence of NADPH and paclitaxel; conditions: 0.5 h
[5] = Drug metabolism in dexamethasone treated CD1 mouse liver microsomes assessed as metabolite formation at 20 uM after 30 mins by LC/MS analysis in presence of NADPH and CYP1A2 inhibitor furafyline; conditions: 0.5 h
[6] = Drug metabolism in dexamethasone treated CD1 mouse liver microsomes assessed as 1alpha,23R,25(OH)3D3 metabolite formation at 20 uM after 30 mins by LC/MS analysis in presence of NADPH; conditions: 0.5 h
[7] = Drug metabolism in prednisone treated CD1 mouse liver microsomes assessed as metabolite formation at 20 uM after 30 mins by LC/MS analysis in presence of NADPH and CYP2E inhibitor di-ethyldithiocarbamate; conditions: 0.5 h
[8] = Drug metabolism in prednisone treated CD1 mouse liver microsomes assessed as metabolite formation at 20 uM after 30 mins by LC/MS analysis in presence of NADPH and CYP2C inhibitor sulfaphenazole; conditions: 0.5 h
[9] = Drug metabolism in prednisone treated CD1 mouse liver microsomes assessed as 1alpha,24R,25(OH)3D3 metabolite formation at 20 uM after 30 mins by LC/MS analysis in presence of NADPH; conditions: 0.5 h
[10] = Drug metabolism in dexamethasone treated CD1 mouse liver microsomes assessed as metabolite formation at 20 uM after 30 mins by LC/MS analysis in presence of NADPH and CYP450 inhibitor SKF525A; conditions: 0.5 h
[11] = Drug metabolism in dexamethasone treated CD1 mouse liver microsomes assessed as metabolite formation at 20 uM after 30 mins by LC/MS analysis in presence of NADPH and CYP2D inhibitor quinine; conditions: 0.5 h
[12] = Drug metabolism in dexamethasone treated CD1 mouse liver microsomes assessed as 1alpha,24S,25(OH)3D3 metabolite formation at 20 uM after 30 mins by LC/MS analysis in presence of NADPH; conditions: 0.5 h
Liver microsome [13] = assay: Drug metabolism in human liver microsomes assessed as metabolite formation at 20 uM after 30 mins by LC/MS analysis in presence of NADPH and ritonavir; conditions: 0.5 h
[14] = Drug metabolism in CD1 mouse liver microsomes assessed as metabolite formation at 20 uM after 30 mins by LC/MS analysis in presence of NADPH and CYP1A2 inhibitor furafyline; conditions: 0.5 h
[15] = Drug metabolism in dexamethasone treated CD1 mouse liver microsomes assessed as metabolite formation at 20 uM after 30 mins by LC/MS analysis in presence of NADPH and CYP2E inhibitor di-ethyldithiocarbamate; conditions: 0.5 h
[16] = Drug metabolism in prednisone treated CD1 mouse liver microsomes assessed as metabolite formation at 20 uM after 30 mins by LC/MS analysis in presence of NADPH and CYP450 inhibitor SKF525A; conditions: 0.5 h
[17] = Drug metabolism in prednisone treated CD1 mouse liver microsomes assessed as 1alpha,23S,25(OH)3D3 metabolite formation at 20 uM after 30 mins by LC/MS analysis in presence of NADPH; conditions: 0.5 h
[18] = Drug metabolism in CD1 mouse liver microsomes assessed as metabolite formation at 20 uM after 30 mins by LC/MS analysis in presence of NADPH and CYP450 inhibitor SKF525A; conditions: 0.5 h
[19] = Drug metabolism in prednisone treated CD1 mouse liver microsomes assessed as metabolite formation at 20 uM after 30 mins by LC/MS analysis in presence of NADPH and CYP2D inhibitor quinine; conditions: 0.5 h
[20] = Drug metabolism in prednisone treated CD1 mouse liver microsomes assessed as depletion of parent compound at 1 uM after 30 mins by LC/MS analysis in presence of NADPH; conditions: 0.5 h
[21] = Drug metabolism in CD1 mouse liver microsomes assessed as depletion of parent compound at 1 uM after 30 mins by LC/MS analysis in presence of NADPH; conditions: 0.5 h
[22] = Drug metabolism in dexamethasone treated CD1 mouse liver microsomes assessed as depletion of parent compound at 1 uM after 30 mins by LC/MS analysis in presence of NADPH; conditions: liver microsomes from dexamethasone-treated mice, read-out: Drug metabolism
[23] = Drug metabolism in prednisone treated CD1 mouse liver microsomes assessed as 1alpha,23R,25(OH)3D3 metabolite formation at 20 uM after 30 mins by LC/MS analysis in presence of NADPH; conditions: 0.5 h
[24] = Drug metabolism in prednisone treated CD1 mouse liver microsomes assessed as 1alpha,24S,25(OH)3D3 metabolite formation at 20 uM after 30 mins by LC/MS analysis in presence of NADPH; conditions: 0.5 h
[25] = Drug metabolism in dexamethasone treated CD1 mouse liver microsomes assessed as metabolite formation at 20 uM after 30 mins by LC/MS analysis in presence of NADPH and CYP2A inhibitor 8-methoxypsoralen; conditions: 0.5 h
[26] = Drug metabolism in CD1 mouse liver microsomes assessed as metabolite formation at 20 uM after 30 mins by LC/MS analysis in presence of NADPH and CYP1A1 inhibitor alpha-naphthoflavone; conditions: 0.5 h
[27] = Drug metabolism in CD1 mouse liver microsomes assessed as metabolite formation at 20 uM after 30 mins by LC/MS analysis in presence of NADPH and CYP2A inhibitor 8-methoxypsoralen; conditions: 0.5 h
[28] = Drug metabolism in dexamethasone treated CD1 mouse liver microsomes assessed as metabolite formation at 20 uM after 30 mins by LC/MS analysis in presence of NADPH and CYP2C inhibitor sulfaphenazole; conditions: 0.5 h
[29] = Drug metabolism in dexamethasone treated CD1 mouse liver microsomes assessed as metabolite formation at 20 uM after 30 mins by LC/MS analysis in presence of NADPH and CYP1A1 inhibitor alpha-naphthoflavone; conditions: 0.5 h
[30] = Drug metabolism in prednisone treated CD1 mouse liver microsomes assessed as metabolite formation at 20 uM after 30 mins by LC/MS analysis in presence of NADPH and CYP1A1 inhibitor alpha-naphthoflavone; conditions: 0.5 h
Liver microsome [31] = assay: Drug metabolism in human liver microsomes assessed as metabolite formation at 20 uM after 30 mins by LC/MS analysis in presence of NADPH and tamoxifen; conditions: 0.5 h
[32] = Drug metabolism in prednisone treated CD1 mouse liver microsomes assessed as metabolite formation at 20 uM after 30 mins by LC/MS analysis in presence of NADPH and CYP1A2 inhibitor furafyline; conditions: 0.5 h
Liver microsome [33] = assay: Drug metabolism in human liver microsomes assessed as assessed as metabolite formation at 20 uM after 30 mins by LC/MS analysis in presence of NADPH; conditions: 0.5 h
[34] = Drug metabolism in CD1 mouse liver microsomes assessed as metabolite formation at 20 uM after 30 mins by LC/MS analysis in presence of NADPH and CYP2C inhibitor sulfaphenazole; conditions: 0.5 h
[35] = Drug metabolism in CD1 mouse liver microsomes assessed as metabolite formation at 20 uM after 30 mins by LC/MS analysis in presence of NADPH and CYP2B inhibitor orphenadrine; conditions: 0.5 h
Liver microsome [36] = assay: Drug metabolism in human liver microsomes assessed as metabolite formation at 20 uM after 30 mins by LC/MS analysis in presence of NADPH and docetaxel; conditions: 0.5 h
Liver microsome [37] = assay: Drug metabolism in human liver microsomes assessed as metabolite formation at 20 uM after 30 mins by LC/MS analysis in presence of NADPH and ketoconazole; conditions: 0.5 h
[38] = Drug metabolism in CD1 mouse liver microsomes assessed as metabolite formation at 20 uM after 30 mins by LC/MS analysis in presence of NADPH and CYP2E inhibitor di-ethyldithiocarbamate; conditions: 0.5 h
[39] = Drug metabolism in CD1 mouse liver microsomes assessed as metabolite formation at 20 uM after 30 mins by LC/MS analysis in presence of NADPH and CYP2D inhibitor quinine; conditions: 0.5 h

C=C1/C(=C\C=C2/CCC[C@]3(C)[C@@H]([C@H](C)CCCC(C)(C)O)CC[C@@H]23)C[C@@H](O)C[C@@H]1O [CALCITRIOL]
Drug metabolism [1]: metabolite_detected | Drug metabolism [2]: metabolite_detected | Drug metabolism [3]: metabolite_detected | Drug metabolism (Liver microsome [4]): metabolite_not_detected | Drug metabolism [5]: metabolite_detected | Drug metabolism [6]: metabolite_detected | Drug metabolism [7]: metabolite_detected | Drug metabolism [8]: metabolite_detected | Drug metabolism [9]: metabolite_detected | Drug metabolism [10]: metabolite_not_detected | Drug metabolism [11]: metabolite_detected | Drug metabolism [12]: metabolite_detected | Drug metabolism (Liver microsome [13]): metabolite_not_detected | Drug metabolism [14]: metabolite_detected | Drug metabolism [15]: metabolite_detected | Drug metabolism [16]: metabolite_not_detected | Drug metabolism [17]: metabolite_detected | Drug metabolism [18]: metabolite_not_detected | Drug metabolism [19]: metabolite_detected | Drug metabolism [20]: metabolite_not_detected | Drug metabolism [21]: metabolite_not_detected | metabolised at 0.5 h, 1 µM [22]: 70% | Drug metabolism [23]: metabolite_detected | Drug metabolism [24]: metabolite_detected | Drug metabolism [25]: metabolite_detected | Drug metabolism [26]: metabolite_detected | Drug metabolism [27]: metabolite_detected | Drug metabolism [28]: metabolite_detected | Drug metabolism [29]: metabolite_detected | Drug metabolism [30]: metabolite_detected | Drug metabolism (Liver microsome [31]): metabolite_not_detected | Drug metabolism [32]: metabolite_detected | Drug metabolism (Liver microsome [33]): metabolite_detected | Drug metabolism [34]: metabolite_detected | Drug metabolism [35]: metabolite_detected | Drug metabolism (Liver microsome [36]): metabolite_not_detected | Drug metabolism (Liver microsome [37]): metabolite_not_detected | Drug metabolism [38]: metabolite_detected | Drug metabolism [39]: metabolite_detected
